Results: patent US8969400B2, “Pharmaceutical compositions of 5-hydroxytryptophan and serotonin-enhancing compound” (Duke University, priority 2007, dated 2015)

How the values were obtained:
Type in all cases: in vivo, mouse
NMRI mice = assay: Tail suspension test in NMRI mice; details: single drug i.p. 30 min prior to test, 6 min test
Description: Drug candidates can be screened for antidepressant-like activity by using animal models. In the tail suspension test the mouse is suspended by its tail. The mouse will initially move and struggle but will with time become increasingly immobile. Pretreatment with a clinically effective antidepressant decreases the time spent immobile. This includes selective serotonin re-uptake inhibitors (SSRIs) and drugs inhibiting the noradrenaline reuptake mechanism, as well as some putative antidepressants with non-monoamine pharmacology. […] In animal models of depression, including the tail suspension test, mouse strains differ considerably in their responsiveness to antidepressants. This may parallel the clinical situation where a considerable subset of patients is refractory to pharmacotherapy. […] In our laboratory mice of the NMRI strain consistently fails to repond to SSRIs in the tail suspension test of antidepressant activity, while C57 mice show a strong response (FIG. 1). Male NMRI and C57Bl/6j mice (Taconic Europe, St. […]) weighing 25-35 g were housed and habituated for at least 7 days before the experiments in Macrolon III cages (20×40×18 cm) with eight mice per cage. Chow and water were available ad libitum, with lights on at 6 a.m. and off at 6 p.m. All behavioral testing was conducted during the light phase. […] All drugs were administered i.p. in saline in a volume of 10 ml/kg. In the tail suspension and locomotor activity experiments drugs were injected 30 min prior to test. The tail suspension test employed was a modified version to that described elsewhere. Mice were suspended individually by the tail using adhesive tape (attached 2 cm from tip of the tail) to a hook attached to a strain gauge and left there for 6 min. The duration of immobility was measured using an automated system (Med Associates, USA) during the 6 min testing period. Tail suspension data were analyzed either using one-way ANOVA (single-drug treatments) or two-way ANOVA (paroxetine/5-HTP and citalopram/5-HTP) with Dunnets post-hoc test. Locomotor activity data were analyzed using two-way ANOVA with Dunnets post-hoc test. Tissue 5-HT data were analyzed using students t-test. Microdialysis 5-HT data were analyzed using two-way repeated measures ANOVA with Dunnets post-hoc test.

extracellular 5-HT = assay: Microdialysis of extracellular 5-HT in frontal cortex, NMRI mice; details: citalopram 20 mg/kg, 5-HTP 12.5 mg/kg
Procedure: (§1) Male NMRI and C57Bl/6j mice (Taconic Europe, St. Laven, DK) weighing 25-35 g were housed and habituated for at least 7 days before the experiments in Macrolon III cages (20×40×18 cm) with eight mice per cage. Chow and water were available ad libitum, with lights on at 6 a.m. and off at 6 p.m. All behavioral testing was conducted during the light phase.
Microdialysis were performed in freely moving mice as previously described in Jacobsen J P et al.; Neuroscience 2005; 132:1055-1072. The flowrate was 1 ul/min and 20 min samples were collected. Four baseline samples were collected whereafter saline, 5-HTP (12.5 mg/kg), citalopram (20 mg/kg) or citalopram+5-HTP were injected and six additional samples where collected. Samples were collected on ice, immediatedly frozen on dry ice and stored at −80° C. until analysis by HPLC-EC.
(§2) 5-HT in tissue and microdialysis samples were analysed using HPLC-EC as previously described in Weikop P et al.; Eur Neuropsychopharmacol 2007; 17:658-671.
(§3) Tail suspension data were analyzed either using one-way ANOVA (single-drug treatments) or two-way ANOVA (paroxetine/5-HTP and citalopram/5-HTP) with Dunnets post-hoc test. Locomotor activity data were analyzed using two-way ANOVA with Dunnets post-hoc test. Tissue 5-HT data were analyzed using students t-test. Microdialysis 5-HT data were analyzed using two-way repeated measures ANOVA with Dunnets post-hoc test.

brain 5-HT = assay: Tissue 5-HT in frontal cortex and hippocampus of NMRI mice (HPLC-EC); details: acute administration
Procedure: as §1
Fluoxetine HCl, desipramine HCL, 5-hydroxytryptamine, citalopram HBr, paroxetine HCl, reboxetine fumarate and duloxetine oxalate. All drugs were administered i.p. in saline in a volume of 10 ml/kg. In the tail suspension and locomotor activity experiments drugs were injected 30 min prior to test.
Mice killed by cervical dislocation and the frontal cortex and hippocampus rapidly dissected, frozen on dry ice and stored at −80° C. until analysis by HPLC-EC.
as §2, §3

C57Bl/6j mice = assay: Tail suspension test in C57 mice; details: single drug i.p. 30 min prior to test, 6 min test
Description: Drug candidates can be screened for antidepressant-like activity by using animal models. In the tail suspension test the mouse is suspended by its tail. The mouse will initially move and struggle but will with time become increasingly immobile. Pretreatment with a clinically effective antidepressant decreases the time spent immobile. This includes selective serotonin re-uptake inhibitors (SSRIs) and drugs inhibiting the noradrenaline reuptake mechanism, as well as some putative antidepressants with non-monoamine pharmacology. […] In animal models of depression, including the tail suspension test, mouse strains differ considerably in their responsiveness to antidepressants. […]
The tail suspension test employed was a modified version to that described elsewhere. […] The duration of immobility was measured using an automated system (Med Associates, USA) during the 6 min testing period.
as §3

| SMILES | immobility in tail suspension test (NMRI mice) | immobility in tail suspension test (C57Bl/6j mice) | further results |
| --- | --- | --- | --- |
| CNCCC(Oc1ccc(C(F)(F)F)cc1)c1ccccc1 (stereo not shown) [fluoxetine] | without effect |  |  |
| N[C@@H](Cc1c[nH]c2ccc(O)cc12)C(=O)O [5-HTP, 5-hydroxytryptophan] | did not affect immobility |  | increase in extracellular 5-HT in the frontal cortex (extracellular 5-HT): only a modest increase; 5-HT levels ± sem, Frontal Cortex (brain 5-HT; frontal cortex tissue): 122 ± 3.3 % of saline; 5-HT levels ± sem, Hippocampus (brain 5-HT; hippocampus tissue): 83.4 ± 2.6 % of saline; decrease of tissue 5-HT in the hippocampus (brain 5-HT; vs saline): 17%; increase of tissue 5-HT in the frontal cortex (brain 5-HT; vs saline): 22% |
| CNCCCN1c2ccccc2CCc2ccccc21 [desipramine] | reduced immobility | decreased immobility |  |
| CCOc1ccccc1OC(c1ccccc1)C1CNCCO1 (stereo not shown) [reboxetine] | reduced immobility | decreased immobility |  |
| Fc1ccc([C@@H]2CCNC[C@H]2COc2ccc3c(c2)OCO3)cc1 [paroxetine] | without effect |  |  |
| CNCC[C@H](Oc1cccc2ccccc12)c1cccs1 [duloxetine] | reduced immobility |  |  |
